Results reported in patent US5773573A, “HIV peptides” (priority 1994, dated 1998).
Read-outs that look alike come from different tables or passages of the source. Residues, ends and D or L forms follow the SMILES beside them.

Experiments:
[1] = system: HIV p24 antigen; assay: p24Ag Assay on blood samples of HIV infected patient given HEP1; type: in vivo; settings: patient three
Description: (§1) The objective of this study was to determine in an HIV infected patient if the induction of immunological tolerance to HEP1 could reduce immune activation and HIV infection. The design of the first clinical experiment was to orally administer HEP1 to the patient in daily 10 mg doses (the lower end of the preferred dose range). This was then followed approximately three months later with a subcutaneous administration of HEP1 at a higher dose of 140 mg. To assess the therapeutic benefit of HEP1, the following disease progression markers were measured by taking blood samples before, during and after each trial and determining: HIV levels by a p24 antigen assay, HIV infectivity by a cellular TCID assay and immune activation by quantitating levels of various lymphocytes.
p24Ag is a marker of HIV infection as well as a predictor of HIV disease progression. The p24Ag assay measures p24 antigen from the core of HIV and is an immunoassay using murine monoclonal antibody coated onto microwell strips. The assay detects HIV in plasma, serum or tissue culture medium. If present, the antigen binds to the antibody-coated microwells. The bound antigen is recognised by biotinylated antibodies to HIV which react with conjugated strepavidin-horseradish peroxidase. Colour develops from the reaction of the peroxidase with hydrogen peroxidase in the presence of tetramethylbenzidine (TMB) substrate. Specimens which are HIV p24Ag positive can be quantitated by setting up a standard curve using serial dilutions of the Antigen Reagent. The assay is not accurate below 30 picograms per ml.
(§2) The following markers of HIV disease progression were assayed: p24Ag (the concentration of HIV p24 protein in picogram/ml in the blood), TCID (the infectivity of the HIV in the cells of blood sample measured by an in vitro cell culture assay in which a serial dilution of the sample was mixed with activated uninfected PBMC and the level of HIV infection determined by p24Ag assay), total white count (immune activation measured by the number of white cells per mm^3), CD4 (the number of CD4 positive cells per mm^3), CD8 (the number of CD8 positive cells per mm^3), NK (the number of Natural Killer cells per mm^3), Lymphocytes (the number of cells per mm^3), Monocytes (the number of cells per mm^3), and Granulocytes (the number of cells per mm^3). Normalised data was calculated by dividing each data point by the value of its data series on day 1 of the trail and multiplying by 100.

[2] = patient three
Description: Oral administration of HEP1 solution containing 10 mg HEP1 was started on day 2 of the trial and continued until day 22. Further Blood samples were taken for analysis on day 7, day 14, day 21 and day 28 of the trial (7 days after the last dose of HEP1).

[3] = system: HIV; assay: Cellular TCID Assay on PBMC of HIV infected patient given HEP1; type: in vivo; settings: patient three; for TCID, normalised data (day 1 = 100): oral HEP1 10 mg daily day 2-22
Description: as §1
Cellular TCID is a technique that measures the relative amount of viral load within cells. Within four hours of a sample being taken from the HIV infected patient, 10^6 viable PBMC from the sample were obtained by centrifugation of the anticoagulated blood over Ficoll-Hypaque lymphocyte separation medium. A serial dilution of the patients cells was set up in a 24 well plate in decreasing amounts (1:1, 1:4, 1:16, 1:64 and 1:256 and a negative control using 0.9 ml special media (RPMI-1640) supplemented with 15% fetal calf serum and 10% interleukin 2. Infected cells were then cocultivated with 10^6 PBMC derived from an uninfected human donor that had been stimulated for 24-48 hours with phytohaemagglutin (PHA) to activate the cells to make them susceptible to infection by HIV. The cocultures were subsequently monitored for the presence of p24 antigen in the supernatant fluid twice weekly for up to 14 days, during this period the plates were spun on days 4,7,11 and 14 and then a 50% medium change was performed. […]
as §2

[4] = oral HEP1 10 mg daily day 2-22, day 1, before first dose
[5] = oral HEP1 10 mg daily day 2-22, day 7, during treatment
[6] = oral HEP1 10 mg daily day 2-22, day 28, after treatment
[7] = oral administration of HEP1 (FIG. 2)
[8] = orally administered HEP1 10 mg daily
[9] = single subcutaneous HEP1 injection in the abdominal wall

Q: With `CC(C)[C@H](NC(=O)[C@@H](NC(=O)[C@H](CCC(=O)O)NC(=O)[C@H](CCCNC(=N)N)NC(=O)[C@H](CCCNC(=N)N)NC(=O)[C@H](CCCCN)NC(=O)[C@H](CCCCN)NC(=O)[C@H](CCC(=O)O)NC(=O)[C@@H](N)[C@@H](C)O)[C@@H](C)O)C(=O)N[C@@H](CCC(=O)O)C(=O)N[C@@H](CCCNC(=N)N)C(=O)N[C@@H](CCC(=O)O)C(=O)N[C@@H](CCCCN)C(=O)N[C@@H](CCC(=O)O)C(=O)O` [HEP1, NH2 ThrGluLysLysArgArgGluThrValGluArgGluLysGluCOOH] (H-TEKKRRETVEREKE-OH) as the compound, how does the p24Ag [1, 4] read?
A: 71 picogram/ml

Q: What about the “p24Ag, normalised data (day 1 = 100)” value [1, 4] of the same compound?
A: 100

Q: What about the p24Ag [1, 5] of the same compound?
A: 44 picogram/ml

Q: What about the “p24Ag, normalised data (day 1 = 100)” value [1, 5] of the same compound?
A: 62

Q: What about the p24Ag [1, 6] of the same compound?
A: 38 picogram/ml

Q: And the “p24Ag, normalised data (day 1 = 100)” value [1, 6]?
A: 54

Q: And the “HIV virus particles as measured by p24Ag levels, course” value [1, 7]?
A: decline

Q: What about the “persistence of the effect on p24Ag and TCID after treatment” value [1, 8] of the same compound?
A: 7 days

Q: And the “reduction of viral load as measured by p24Ag” value [1, 8]?
A: 46%

Q: And the p24Ag ([1]; single subcutaneous HEP1 dose on day 1, day-91, end of oral study)?
A: 38 picogram/ml

Q: What about the adverse reactions ([2]; oral HEP1 10 mg daily day 2-22) of the same compound?
A: no adverse reactions

Q: What about the adverse reactions [2, 9] of the same compound?
A: no other adverse reactions

Q: And the “duration of stinging sensation after injection” value [2, 9]?
A: approximately 15 minutes

Q: What about the “TCID, normalised data (day 1 = 100)” value ([3]; day 1, before first dose) of the same compound?
A: 100

Q: What about the “TCID, normalised data (day 1 = 100)” value ([3]; day 28, after treatment) of the same compound?
A: 6

Q: And the “HIV infectivity as measured by a TCID assay, course” value [3, 7]?
A: decline

Q: And the “reduction of the infectivity of HIV as measured by TCID” value [3, 8]?
A: 16 X
